Experimental data taken from patent US10995091B2 (Proximagen, LLC, priority 2010, dated 2021).

Target: T1, Human CXCR4 transfected HEK293 cells (Homo sapiens, UniProt P61073)
T1 construct: expressed in transfected cells; host or cells: HEK293
Experiment: CXCR4 functional calcium assay (calcium flux FLIPR, antagonism of SDF1 response)
Type: cell-based
Conditions: CXCR4 functional activity, antagonism of SDF1 (EC50 concentration), read-out: CXCR4 fKi
Description: The functional activity of test compounds was routinely tested by measuring the ability of compounds to antagonize CXCR4 activity in a dose dependent manner, using a calcium flux Fluorescent Imaging Plate Reader FLIPR assay.
Human CXCR4 transfected HEK293 cells were cultured in Dulbecco's modified Eagles medium containing 4.5 g/L glucose, L-glutamine, pyruvate, 50 µg/mL Geneticin and 250 µg/mL hygromycin B and maintained at 37° C. in a humidified, 5% CO2 controlled atmosphere. Subcultivations were performed every 2-3 d.
At confluence the cells were lifted using Ca^2+ and Mg^2+ free PBS/0.02% (w/v) EDTA, spun at 1000 rpm for 3 min and resuspended at 2.5×10^5 cells/mL. Cells were plated into a 384 well, poly-d-lysine coated, black with clear bottomed plate (Becton Dickinson) at 7500 cells/well. The plates were incubated overnight at 37° C. under 5% CO2. On the day of the experiment the cells were washed with incubation Buffer (HBSS containing 2.5 mM probenecid, 0.1% w/v BSA and 10 mM HEPES, pH 7.4 at 37° C.). After washing, the cells were loaded with Fluo-4 AM dye (Molecular probes) at 2 µM containing 0.48 µg/mL pluronic acid for 60 min at 37° C. under 5% CO2. After thorough washing with incubation buffer the cells were preincubated for 10 min at 37° C. before use.
A combined agonist/antagonist protocol was used to measure changes in intracellular calcium concentration. Compound (antagonist) was added to the cell plate using a Fluorometric Imaging Plate Reader (FLIPR) (Molecular Devices, Sunnyvale, Calif., USA). Basal fluorescence was recorded every second for 10 seconds prior to compound addition (10 μl) and fluorescence recorded every second for 1 min then every 6 seconds for a further 1 min. SDF1[…] (EC50 concentration) was then added using the FLIPR and fluorescence recorded as described above. Curve-fitting and parameter estimation were carried out using GraphPad Prism 4.0 (GraphPad Software Inc., San Diego, Calif.).

T1 sequence (P61073 whole entry): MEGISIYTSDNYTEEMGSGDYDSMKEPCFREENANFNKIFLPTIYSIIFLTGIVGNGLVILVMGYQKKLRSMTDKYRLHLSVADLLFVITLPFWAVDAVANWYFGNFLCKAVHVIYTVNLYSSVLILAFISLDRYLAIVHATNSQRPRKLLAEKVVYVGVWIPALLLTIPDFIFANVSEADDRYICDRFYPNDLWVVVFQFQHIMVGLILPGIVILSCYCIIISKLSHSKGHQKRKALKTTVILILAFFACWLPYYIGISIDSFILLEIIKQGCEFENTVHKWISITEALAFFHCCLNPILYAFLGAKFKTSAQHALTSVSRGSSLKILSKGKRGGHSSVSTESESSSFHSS

Row | Compound | Ki
1 | CC(C)N1CCC(N2CCCN(c3cccc(C(=O)Nc4ccccn4)n3)CC2)CC1 [Example 28, 6-{4-[1-(Propan-2-yl)piperidin-4-yl]-1,4-diazepan-1-yl}-N-(pyridin-2-yl)pyridine-2-carboxamide] | < 20 nM
2 | CC(C)N1CCC(N2CCCN(c3cccc(C(=O)Nc4cccnc4)n3)CC2)CC1 [Example 29, 6-{4-[1-(Propan-2-yl)piperidin-4-yl]-1,4-diazepan-1-yl}-N-(pyridin-3-yl)pyridine-2-carboxamide] | 20 to 100 nM
3 | CC(C)N1CCC(N2CCCN(c3cccc(C(=O)Nc4nccs4)n3)CC2)CC1 [Example 31, 6-{4-[1-(Propan-2-yl)piperidin-4-yl]-1,4-diazepan-1-yl}-N-(1,3-thiazol-2-yl)pyridine-2-carboxamide] | < 20 nM
4 | CC(C)N1CCC(N2CCCN(c3cccc(C(=O)Nc4cncs4)n3)CC2)CC1 [Example 32, 6-{4-[1-(Propan-2-yl)piperidin-4-yl]-1,4-diazepan-1-yl}-N-(1,3-thiazol-5-yl)pyridine-2-carboxamide] | < 20 nM
5 | CC(C)N1CCC(N2CCCN(c3cccc(C(=O)NCc4ccccn4)n3)CC2)CC1 [Example 33, 6-{4-[1-(Propan-2-yl)piperidin-4-yl]-1,4-diazepan-1-yl}-N-(pyridin-2-ylmethyl)pyridine-2-carboxamide] | 20 to 100 nM
6 | CC(C)N1CCC(N2CCCN(c3cccc(C(=O)NCc4cccnc4)n3)CC2)CC1 [Example 34, 6-{4-[1-(Propan-2-yl)piperidin-4-yl]-1,4-diazepan-1-yl}-N-(pyridin-3-ylmethyl)pyridine-2-carboxamide] | < 20 nM
7 | CC(C)N1CCC(N2CCCN(c3cccc(C(=O)N(C)Cc4cccnc4)n3)CC2)CC1 [Example 35, N-Methyl-6-{4-[1-(Propan-2-yl)piperidin-4-yl]-1,4-diazepan-1-yl}-N-(pyridin-3-ylmethyl)pyridine-2-carboxamide] | 100 to 500 nM
8 | CC(C)N1CCC(N2CCCN(c3cccc(C(=O)NCc4ccncc4)n3)CC2)CC1 [Example 36, 6-{4-[1-(Propan-2-yl)piperidin-4-yl]-1,4-diazepan-1-yl}-N-(pyridin-4-ylmethyl)pyridine-2-carboxamide] | < 20 nM
9 | CC(C)N1CCC(N2CCCN(c3cccc(C(=O)NCc4nccn4C)n3)CC2)CC1 [Example 37, N-[(1-Methyl-1H-imidazol-2-yl)methyl]-6-{4-[1-(propan-2-yl)piperidin-4-yl]-1,4-diazepan-1-yl}pyridine-2-carboxamide] | 100 to 500 nM
10 | CC(C)N1CCC(N2CCCN(c3cccc(C(=O)NCc4ncco4)n3)CC2)CC1 [Example 38, N-(1,3-Oxazol-2-ylmethyl)-6-{4-[1-(propan-2-yl)piperidin-4-yl]-1,4-diazepan-1-yl}pyridine-2-carboxamide] | 20 to 100 nM
11 | CC(C)N1CCC(N2CCCN(c3cccc(C(=O)NCc4nccs4)n3)CC2)CC1 [Example 39, 6-{4-[1-(Propan-2-yl)piperidin-4-yl]-1,4-diazepan-1-yl} N-(1,3-thiazol-2-ylmethyl)pyridine-2-carboxamide] | 20 to 100 nM
12 | CC(C)N1CCC(N2CCCN(c3cccc(C(=O)NCc4ccco4)n3)CC2)CC1 [Example 40, N-(Furan-2-ylmethyl)-6-{4-[1-(propan-2-yl)piperidin-4-yl]-1,4-diazepan-1-yl}pyridine-2-carboxamide] | < 20 nM
13 | CC(C)N1CCC(N2CCCN(c3cccc(C(=O)NCc4cocn4)n3)CC2)CC1 [Example 41, N-(1,3-Oxazol-4-ylmethyl)-6-{4-[1-(propan-2-yl)piperidin-4-yl]-1,4-diazepan-1-yl}pyridine-2-carboxamide] | 20 to 100 nM
14 | CC(C)N1CCC(N2CCCN(c3cccc(C(=O)NCc4cscn4)n3)CC2)CC1 [Example 42, 6-{4-[1-(Propan-2-yl)piperidin-4-yl]-1,4-diazepan-1-yl}-N-(1,3-thiazol-4-ylmethyl)pyridine-2-carboxamide] | 20 to 100 nM
15 | CC(C)N1CCC(N2CCCN(c3cccc(C(=O)NCc4cncs4)n3)CC2)CC1 [Example 43, 6-{4-[1-(Propan-2-yl)piperidin-4-yl]-1,4-diazepan-1-yl}-N-(1,3-thiazol-5-ylmethyl)pyridine-2-carboxamide] | 20 to 100 nM
16 | CC(C)N1CCC(N2CCCN(c3cccc(C(=O)NCc4cnco4)n3)CC2)CC1 [Example 44, N-(1,3-Oxazol-5-ylmethyl)-6-{4-[1-(propan-2-yl)piperidin-4-yl]-1,4-diazepan-1-yl}pyridine-2-carboxamide] | 20 to 100 nM

Row | Compound | Ki
17 | CC(C)N1CCC(N2CCCN(c3cccc(C(=O)NCCn4ccnc4)n3)CC2)CC1 [Example 45, N-[2-(1H-Imidazol-1-yl)ethyl]-6-{4-[1-(propan-2-yl)piperidin-4-yl]-1,4-diazepan-1-yl}pyridine-2-carboxamide] | 20 to 100 nM
18 | CC(C)N1CCC(N2CCCN(c3cccc(C(=O)NCCc4ccccn4)n3)CC2)CC1 [Example 46, 6-{4-[1-(Propan-2-yl)piperidin-4-yl]-1,4-diazepan-1-yl}-N-[2-(pyridin-2-yl)ethyl]pyridine-2-carboxamide] | 20 to 100 nM
19 | O=C(NCC1CCOCC1)c1cccc(N2CCCN(C3CCN(Cc4ccccc4Cl)CC3)CC2)n1 [Example 47, 6-(4-{1-[(2-Chlorophenyl)methyl]piperidin-4-yl}-1,4-diazepan-1-yl)-N-(oxan-4-ylmethyl)pyridine-2-carboxamide] | < 20 nM
20 | O=C(NCC(F)(F)F)c1cccc(N2CCCN(C3CCN(Cc4ccccc4Cl)CC3)CC2)n1 [Example 48, 6-(4-{1-[(2-Chlorophenyl)methyl]piperidin-4-yl}-1,4-diazepan-1-yl)-N-(2,2,2-trifluoroethyl)pyridine-2-carboxamide] | 100 to 500 nM
21 | CC(C)CCNC(=O)c1cccc(N2CCCN(C3CCN(Cc4ccccc4Cl)CC3)CC2)n1 [Example 49, 6-(4-{1-[(2-Chlorophenyl)methyl]piperidin-4-yl}-1,4-diazepan-1-yl)-N-(3-methylbutyl)pyridine-2-carboxamide] | 100 to 500 nM
22 | COCCNC(=O)c1cccc(N2CCCN(C3CCN(Cc4ccccc4Cl)CC3)CC2)n1 [Example 50, 6-(4-{1-[(2-Chlorophenyl)methyl]piperidin-4-yl}-1,4-diazepan-1-yl)-N-(2-methoxyethyl)pyridine-2-carboxamide] | 100 to 500 nM
23 | O=C(NC[C@H]1CCCO1)c1cccc(N2CCCN(C3CCN(Cc4ccccc4Cl)CC3)CC2)n1 [Example 51, 6-(4-{1-[(2-Chlorophenyl)methyl]piperidin-4-yl}-1,4-diazepan-1-yl)-N-[(2R)-oxolan-2-ylmethyl]pyridine-2-carboxamide] | 20 to 100 nM
24 | O=C(NC1CCOCC1)c1cccc(N2CCCN(C3CCN(Cc4ccccc4Cl)CC3)CC2)n1 [Example 52, 6-(4-{1-[(2-Chlorophenyl)methyl]piperidin-4-yl}-1,4-diazepan-1-yl)-N-(oxan-4-yl)pyridine-2-carboxamide] | 20 to 100 nM
25 | O=C(Nc1cccnc1)c1cccc(N2CCCN(C3CCN(Cc4ccccc4Cl)CC3)CC2)n1 [Example 53] | 20 to 100 nM
26 | O=C(Nc1ccncc1)c1cccc(N2CCCN(C3CCN(Cc4ccccc4Cl)CC3)CC2)n1 [Example 54, 6-(4-{1-[(2-Chlorophenyl)methyl]piperidin-4-yl}-1,4-diazepan-1-yl)-N-(pyridine-4-yl)pyridine-2-carboxamide] | < 20 nM
27 | O=C(NCc1cccnc1)c1cccc(N2CCCN(C3CCN(Cc4ccccc4Cl)CC3)CC2)n1 [Example 55, 6-(4-{1-[(2-Chlorophenyl)methyl]piperidin-4-yl}-1,4-diazepan-1-yl)-N-(pyridine-3-ylmethyl)pyridine-2-carboxamide] | 20 to 100 nM
28 | O=C(NCc1ccncc1)c1cccc(N2CCCN(C3CCN(Cc4ccccc4Cl)CC3)CC2)n1 [Example 56, 6-(4-{1-[(2-Chlorophenyl)methyl]piperidin-4-yl}-1,4-diazepan-1-yl)-N-(pyridine-4-ylmethyl)pyridine-2-carboxamide] | < 20 nM
29 | O=C(NCc1ncco1)c1cccc(N2CCCN(C3CCN(Cc4ccccc4Cl)CC3)CC2)n1 [Example 57, 6-(4-{1-[(2-Chlorophenyl)methyl]piperidin-4-yl}-1,4-diazepan-1-yl)-N-(1,3-oxazol-2-ylmethyl)pyridine-2-carboxamide] | 20 to 100 nM
30 | O=C(NCc1cocn1)c1cccc(N2CCCN(C3CCN(Cc4ccccc4Cl)CC3)CC2)n1 [Example 58, 6-(4-{1-[(2-Chlorophenyl)methyl]piperidin-4-yl}-1,4-diazepan-1-yl)-N-(1,3-oxazol-4-ylmethyl)pyridine-2-carboxamide] | 100 to 500 nM
31 | O=C(NCC1CC1)c1cccc(N2CCCN(C3CCN(C(CF)CF)CC3)CC2)n1 [Example 59, N-(Cyclopropylmethyl)-6-{4-[1-(1,3-difluoropropan-2-yl)piperidin-4-yl]-1,4-diazepan-1-yl}pyridine-2-carboxamide] | 100 to 500 nM
32 | CCN1CCC(N2CCCN(c3cccc(C(=O)NCC4CC4)n3)CC2)CC1 [Example 60, N-(Cyclopropylmethyl)-6-[4-(1-ethylpiperidin-4-yl)-1,4-diazepan-1-yl]pyridine-2-carboxamide] | 500 to 1000 nM
